In ChEMBL document CHEMBL1201862, “PubChem BioAssay data set” (2004):
The source made the active and inactive calls.

Columns and labels:
[1] = inhibitors of clade B AD8 Env fusion, dose response, cell-based, cherry-pick (AID 652062); format: functional;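 also: luciferase signal from cell-cell fusion driven by HIV-1 clade B AD8 Env; potency is for inhibitors of fusion seen as a drop in luminescence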
[2] = ZM109 Env clade C HIV-1 fusion inhibitors, dose response, HeLa effector, CEM target cells, luciferase, cherry-pick (AID 652058); format: functional, cell-based
[3] = inhibitors of HIV Env-driven cell fusion, dose response, cherry-pick (AID 652057); format: functional, cell-based
[4] = control 3'UTR Renilla luciferase suppression, dose response, counter-screen for Shn3 inhibitor project, cell-based, Clone20-Shn3RL, cherry-picked (AID 624133); format: functional
[5] = HepG2 cell cytotoxicity, dose response, cytotoxicity control for Shn3 inhibitor project, CellTiter-Glo, cherry-picked (AID 624134); format: functional, cell-based
[6] = Shn3 3'UTR reporter inhibitors, dose response, cell-based, Clone20 osteoblasts, firefly luciferase, cherry-picked (AID 624132); format: functional;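 also: firefly luciferase luminescence from reporter carrying the Shn3 3'UTR in osteoblasts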
[7] = molecular target: T1, RNA-binding protein pos-1 (Caenorhabditis elegans, UniProt G5EF15); test: inhibitors of POS-1/mex-3 RNA binding, dose response, biochemical, fluorescence polarization (AID 1964);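 also: purified POS-1 fused to maltose binding protein made in E. coli; potency of compounds blocking POS-1 binding to fluorescent RNA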
T1 sequence (G5EF15 whole entry): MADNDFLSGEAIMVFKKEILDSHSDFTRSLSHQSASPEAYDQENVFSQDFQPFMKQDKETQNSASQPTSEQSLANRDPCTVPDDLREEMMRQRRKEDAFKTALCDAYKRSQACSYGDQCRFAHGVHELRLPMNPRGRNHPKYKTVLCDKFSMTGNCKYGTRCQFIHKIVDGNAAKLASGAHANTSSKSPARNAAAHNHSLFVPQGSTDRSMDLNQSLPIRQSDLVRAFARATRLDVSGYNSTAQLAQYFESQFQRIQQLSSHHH

[8] = molecular target: T2, Zinc finger protein mex-5 (Caenorhabditis elegans, UniProt Q9XUB2); test: MEX-5/TCR-2 RNA interaction inhibitors, dose response, biochemical, C. elegans, fluorescence polarization (AID 1960)
T2 sequence (Q9XUB2 whole entry): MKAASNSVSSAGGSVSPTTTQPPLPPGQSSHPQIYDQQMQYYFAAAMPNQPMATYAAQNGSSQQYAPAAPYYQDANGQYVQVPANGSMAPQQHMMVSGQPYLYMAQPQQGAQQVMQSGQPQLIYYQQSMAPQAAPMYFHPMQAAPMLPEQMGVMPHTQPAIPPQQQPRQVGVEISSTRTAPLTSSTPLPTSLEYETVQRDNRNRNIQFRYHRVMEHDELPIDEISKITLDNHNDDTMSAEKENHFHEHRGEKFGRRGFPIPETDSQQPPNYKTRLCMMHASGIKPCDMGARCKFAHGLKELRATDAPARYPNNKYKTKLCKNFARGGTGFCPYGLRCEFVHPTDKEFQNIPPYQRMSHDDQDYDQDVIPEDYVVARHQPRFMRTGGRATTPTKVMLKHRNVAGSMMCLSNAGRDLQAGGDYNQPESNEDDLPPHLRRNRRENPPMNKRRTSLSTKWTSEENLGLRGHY

[9] = molecular target: T3, Polyadenylate-binding protein 1 (Homo sapiens, UniProt P11940); test: PABP1 MLLE–PAM2 binding inhibitor potency, dose response, biochemical, fluorescence polarization, FITC-PAM2 peptide (AID 602259); format: functional; conditions: read-out: IC50_Mean
T3 sequence (P11940 whole entry): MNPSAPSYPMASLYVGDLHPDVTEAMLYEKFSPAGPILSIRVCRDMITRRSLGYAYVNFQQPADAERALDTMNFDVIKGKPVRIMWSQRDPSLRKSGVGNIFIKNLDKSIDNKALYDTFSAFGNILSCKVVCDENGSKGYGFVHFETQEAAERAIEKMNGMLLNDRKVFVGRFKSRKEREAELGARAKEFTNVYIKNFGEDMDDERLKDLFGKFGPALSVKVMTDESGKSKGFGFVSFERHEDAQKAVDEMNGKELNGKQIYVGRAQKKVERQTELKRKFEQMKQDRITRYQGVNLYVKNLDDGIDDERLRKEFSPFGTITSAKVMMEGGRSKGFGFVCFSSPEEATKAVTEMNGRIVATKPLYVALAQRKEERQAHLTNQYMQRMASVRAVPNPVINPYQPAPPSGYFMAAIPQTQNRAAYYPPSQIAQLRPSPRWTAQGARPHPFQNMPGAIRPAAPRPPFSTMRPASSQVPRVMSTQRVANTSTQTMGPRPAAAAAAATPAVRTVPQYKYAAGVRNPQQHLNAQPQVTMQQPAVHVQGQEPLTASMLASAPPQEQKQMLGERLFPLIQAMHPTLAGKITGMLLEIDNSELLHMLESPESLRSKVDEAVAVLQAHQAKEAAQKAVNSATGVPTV

[10] = molecular target: T3, Polyadenylate-binding protein 1; test: PABP1 MLLE–PAM2 interaction inhibitors, dose response, miRNA deadenylation inhibitor project, biochemical, fluorescence polarization, Cy5-PAM2 peptide, secondary (AID 602260); format: functional; conditions: read-out: IC50_Mean
[11] = C. albicans growth with fluconazole, confirmation, fluorescence, retest (AID 2467); format: functional, cell-based
[12] = NIH-3T3 fibroblast cytotoxicity, dose response, cytotoxicity control, cell-based, fluorescence, Alamar Blue, secondary assay (AID 2327); format: functional;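 also: NIH-3T3 mouse fibroblasts cultured with fluconazole at 8 µg/mL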
[13] = molecular target: T4, High affinity choline transporter 1 (Homo sapiens, UniProt Q9GZV3); test: CHT inhibitors, dose response, cell-based, 5-point CRC, membrane potential dye (AID 504840); format: functional
T4 sequence (Q9GZV3 whole entry): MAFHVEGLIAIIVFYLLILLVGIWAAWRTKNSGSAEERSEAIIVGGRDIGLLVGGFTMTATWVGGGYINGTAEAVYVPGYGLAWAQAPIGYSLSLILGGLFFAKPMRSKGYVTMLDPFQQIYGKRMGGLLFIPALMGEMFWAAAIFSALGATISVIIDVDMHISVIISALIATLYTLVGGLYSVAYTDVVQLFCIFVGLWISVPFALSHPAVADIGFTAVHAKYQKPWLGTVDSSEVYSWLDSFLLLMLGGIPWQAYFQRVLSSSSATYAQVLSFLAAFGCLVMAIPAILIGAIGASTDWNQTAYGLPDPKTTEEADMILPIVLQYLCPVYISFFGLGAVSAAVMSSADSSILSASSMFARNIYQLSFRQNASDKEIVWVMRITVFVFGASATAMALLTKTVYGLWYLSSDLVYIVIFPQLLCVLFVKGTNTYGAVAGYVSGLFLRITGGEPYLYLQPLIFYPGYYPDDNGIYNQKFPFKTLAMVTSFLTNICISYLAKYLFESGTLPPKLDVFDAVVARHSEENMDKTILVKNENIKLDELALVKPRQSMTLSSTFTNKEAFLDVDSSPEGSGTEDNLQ

Question: With CO[C@@H](CN(C)S(=O)(=O)c1ccc(Cl)cc1)[C@@H](C)CN([C@H](C)CO)S(=O)(=O)c1cccc(Cl)c1 as the compound, how does the AC50 [1] read?
Answer: The AC50 was 19.5 µM (active).

Question: And the AC50 [2]?
Answer: Its AC50 is 1.1 µM (active).

Question: What about the AC50 [3] of the same compound?
Answer: Its AC50 is 1.25 µM (active).

Question: With COc1ccccc1OCC(=O)c1[nH]c(C)c(C(C)=O)c1C as the compound, how does the AC50 [4] read?
Answer: Its AC50 is 3.81 µM (active).

Question: What about the AC50 [1] of the same compound?
Answer: Its AC50 is 46.4 µM (active).

Question: What about the AC50 [2] of the same compound?
Answer: Its AC50 is 2.13 µM (active).

Question: And the AC50 [5]?
Answer: Its AC50 is > 70 µM (inactive).

Question: And the AC50 [6]?
Answer: The AC50 was 3.35 µM (active).

Question: Which EC50 [7] does the source give for C/C(=N\NC(=O)c1nnn(-c2nonc2N)c1-c1cccs1)c1cccc(O)c1 here?
Answer: The EC50 was > 300 µM (not active).

Question: What about the EC50 [8] of the same compound?
Answer: Its EC50 is > 300 µM (not active).

Question: What does the source list for O=C1NC(=O)N(CCc2ccc(F)cc2)C(=O)/C1=C/NCCCn1ccnc1?
Answer: EC50 [7]: > 300 µM (not active); EC50 [8]: > 300 µM (not active)

Question: For Cc1nnc(NC(=O)C2c3ccccc3Oc3ccccc32)s1, which IC50 [9] is on record?
Answer: Its IC50 is > 66 µM (inactive).

Question: And the IC50 [10]?
Answer: The IC50 was > 66 µM (inactive).

Question: For NS(=O)(=O)c1cccc2c1c([N+](=O)[O-])cc1nc(O)c(O)nc12, which IC50 [9] is on record?
Answer: Its IC50 is > 66 µM (inactive).

Question: What about the IC50 [10] of the same compound?
Answer: Its IC50 is > 66 µM (inactive).

Question: Which EC50 [11] does the source give for c1csc(CNc2ncnc3sccc23)c1 here?
Answer: Its EC50 is 3.28 µM (active).

Question: And the EC50 [12]?
Answer: The EC50 was > 160 µM (inconclusive).

Question: And the AC50 [4]?
Answer: The AC50 was 4.77 µM (active).

Question: And the AC50 [1]?
Answer: Its AC50 is 8.87 µM (active).

Question: What about the AC50 [2] of the same compound?
Answer: The AC50 was 46.1 µM (active).

Question: And the AC50 [5]?
Answer: Its AC50 is 4.61 µM (active).

Question: What about the AC50 [6] of the same compound?
Answer: Its AC50 is 1.8 µM (active).

Question: And the AC50 [3]?
Answer: Its AC50 is 39.4 µM (active).

Question: Which results are given for COc1cc2[nH]c(=S)n(NC(=O)c3ccccc3)c(=O)c2cc1OC?
Answer: IC50 [9]: > 66 µM (inactive); IC50 [10]: > 66 µM (inactive)

Question: For O=S(=O)(NCc1csc(-c2cccs2)n1)c1cccc(C(F)(F)F)c1, which IC50 [13] is on record?
Answer: Its IC50 is 14.5 µM (active).

Question: For N#CC1=C(N)OC2=C(C(=O)CCC2)C1c1ccc(OC(=O)N2CCOCC2)cc1 (stereo not given), which EC50 [7] is on record?
Answer: The EC50 was > 300 µM (not active).

Question: What about the EC50 [8] of the same compound?
Answer: The EC50 was > 300 µM (not active).

Question: For CCCN(CC(=O)Nc1ccc(F)c(F)c1F)C(=O)Cn1c(=O)cnc2ccccc21, which IC50 [13] is on record?
Answer: Its IC50 is 12.3 µM (active).
